From patent US20060069132A1, “Azolecarboxamide herbicides” (priority 2004, published 2006)

What was measured:
[1] = system: barnyardgrass; experiment: Test A pre-/postemergence herbicide test; type: in vivo, Echinochloa crus-galli
Procedure, shortened: (§1)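 Visual injury scores on a 0–100 scale (100 = complete control) taken about ten days post-treatment in greenhouse against untreated controls; dash means no result. Treatments: preemergence soil spray and postemergence spray to runoff on one- to two-leaf plants 2 to 10 cm tall, surfactant-containing formulation.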

[2] = system: large crabgrass; experiment: Test A pre-/postemergence herbicide test; type: in vivo, Digitaria sanguinalis
Procedure, shortened: as §1

[3] = system: giant foxtail; experiment: Test A pre-/postemergence herbicide test; type: in vivo, Setaria faberi
Procedure, shortened: as §1

[4] = system: morningglory; experiment: Test A pre-/postemergence herbicide test; type: in vivo, Ipomoea spp.
Procedure, shortened: as §1

[5] = system: redroot pigweed; experiment: Test A pre-/postemergence herbicide test; type: in vivo, Amaranthus retroflexus
Procedure, shortened: as §1

[6] = system: velvetleaf; experiment: Test A pre-/postemergence herbicide test; type: in vivo, Abutilon theophrasti
Procedure, shortened: as §1

[7] = system: barnyardgrass; experiment: Test B pre-/postemergence herbicide test; type: in vivo, Echinochloa crus-galli; settings: for Plant response rating, Barnyardgrass: preemergence; for Barnyardgrass plant response rating: postemergence, visual rating, scale 0 (no effect) to 100 (complete control)
Procedure, shortened: (§2)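 Response was scored visually 13 to 15 days after treatment against untreated greenhouse controls, 0 meaning no effect and 100 complete control. Formulations (solvent mixture plus surfactant) went onto soil after planting, onto foliage of 1- to 4-leaf plants, and onto 2-leaf plants in a flooded paddy set including rice and barnyardgrass.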

[8] = system: Surinam grass; experiment: Test B pre-/postemergence herbicide test; type: in vivo, Urochloa decumbens; settings: for Plant response rating, Surinam Grass: preemergence; for Surinam Grass plant response rating: postemergence, visual rating, scale 0 (no effect) to 100 (complete control)
Procedure, shortened: (§3)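 Herbicidal effect was judged by eye on a 0–100 scale after plants stood 13 to 15 days in the greenhouse following pre- or postemergence treatment with surfactant-containing formulations.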

[9] = system: cocklebur; experiment: Test B pre-/postemergence herbicide test; type: in vivo, Xanthium strumarium; settings: for Plant response rating, Cocklebur: preemergence; for Cocklebur plant response rating: postemergence, visual rating, scale 0 (no effect) to 100 (complete control)
Procedure, shortened: as §2

[10] = system: corn; experiment: Test B pre-/postemergence herbicide test; type: in vivo, Zea mays; settings: for Plant response rating, Corn: preemergence; for Corn plant response rating: postemergence, visual rating, scale 0 (no effect) to 100 (complete control)
Procedure, shortened: as §3

[11] = system: large crabgrass; experiment: Test B pre-/postemergence herbicide test; type: in vivo, Digitaria sanguinalis; settings: for Plant response rating, Crabgrass, Large: preemergence; for Crabgrass, Large plant response rating: postemergence, visual rating, scale 0 (no effect) to 100 (complete control)
Procedure, shortened: as §3

[12] = system: giant foxtail; experiment: Test B pre-/postemergence herbicide test; type: in vivo, Setaria faberi; settings: for Plant response rating, Foxtail, Giant: preemergence; for Foxtail, Giant plant response rating: postemergence, visual rating, scale 0 (no effect) to 100 (complete control)
Procedure, shortened: as §3

[13] = system: lambsquarters; experiment: Test B pre-/postemergence herbicide test; type: in vivo, Chenopodium album; settings: for Lambsquarters plant response rating: postemergence, visual rating, scale 0 (no effect) to 100 (complete control)
Procedure, shortened: as §3

[14] = system: morningglory; experiment: Test B pre-/postemergence herbicide test; type: in vivo, Ipomoea coccinea; settings: for Plant response rating, Morningglory: preemergence; for Morningglory plant response rating: postemergence, visual rating, scale 0 (no effect) to 100 (complete control)
Procedure, shortened: as §2

[15] = system: pigweed; experiment: Test B pre-/postemergence herbicide test; type: in vivo, Amaranthus retroflexus; settings: for Plant response rating, Pigweed: preemergence; for Pigweed plant response rating: postemergence, visual rating, scale 0 (no effect) to 100 (complete control)
Procedure, shortened: as §3

[16] = system: rice; experiment: Test B pre-/postemergence herbicide test; type: in vivo, Oryza sativa; settings: preemergence
Procedure, shortened: as §3

[17] = system: velvetleaf; experiment: Test B pre-/postemergence herbicide test; type: in vivo, Abutilon theophrasti; settings: for Plant response rating, Velvetleaf: preemergence; for Velvetleaf plant response rating: postemergence, visual rating, scale 0 (no effect) to 100 (complete control)
Procedure, shortened: as §3

[18] = system: blackgrass; experiment: Test B postemergence herbicide test; type: in vivo, Alopecurus myosuroides; settings: postemergence, visual rating, scale 0 (no effect) to 100 (complete control)
Procedure, shortened: (§4)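 Visual control ratings, 0–100 versus untreated controls, taken after 13 to 15 days in the greenhouse. Blackgrass received a postemergence spray at the 1- to 4-leaf stage (2–18 cm); ducksalad, umbrella sedge and barnyardgrass were flooded-paddy treated at 2 leaves.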

[19] = system: wheat; experiment: Test B postemergence herbicide test; type: in vivo, Triticum aestivum; parameters: key to Wheat plant response rating: 0 = no effect, 100 = complete control; settings: postemergence, 500 g ai/ha; visual rating, scale 0 (no effect) to 100 (complete control)
Procedure, shortened: (§5)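 Plants grow to 1- to 4-leaf stage (2–18 cm) for postemergence spraying, or to 2-leaf stage for the paddy test. Formulated compound is applied. Greenhouse holding lasts 13–15 days. Response is scored visually relative to controls, 0 no effect to 100 complete control; a dash means no result.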

[20] = system: wild oat; experiment: Test B postemergence herbicide test; type: in vivo, Avena fatua; settings: postemergence, visual rating, scale 0 (no effect) to 100 (complete control)
Procedure, shortened: as §5

[21] = system: rice; experiment: Test B flooded paddy test; type: in vivo, Oryza sativa; settings: 1000 g ai/ha, visual rating, scale 0 to 100 (0 no effect, 100 complete control), 13 to 15 days
Procedure, shortened: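 Treated at 2-leaf (paddy) or 1–4-leaf, 2–18 cm (postemergence); greenhouse 13–15 d; visual score vs control, 0 none to 100 complete control; dash = not tested.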

[22] = system: small flower umbrella sedge; experiment: Test B flooded paddy test; type: in vivo, Cyperus difformis; settings: 1000 g ai/ha, visual rating, scale 0 to 100 (0 no effect, 100 complete control), 13 to 15 days
Procedure, shortened: as §4

[23] = system: ducksalad; experiment: Test B flooded paddy test; type: in vivo, Heteranthera limosa; settings: 1000 g ai/ha, visual rating, scale 0 to 100 (0 no effect, 100 complete control), 13 to 15 days
Procedure, shortened: as §4

[24] = system: barnyardgrass; experiment: Test B flooded paddy test; type: in vivo, Echinochloa crus-galli; settings: 1000 g ai/ha, visual rating, scale 0 to 100 (0 no effect, 100 complete control), 13 to 15 days
Procedure, shortened: as §4

[25] = Postemergence, 500 g ai/ha, 0 to 100 scale, 0 no effect, 100 complete control
[26] = Postemergence, 2000 g ai/ha, 0 to 100 scale, 0 no effect, 100 complete control
[27] = Preemergence, 500 g ai/ha, visual rating, 0 to 100 scale (0 no effect, 100 complete control)
[28] = Preemergence, 2000 g ai/ha, visual rating, 0 to 100 scale (0 no effect, 100 complete control)
[29] = preemergence, 500 g ai/ha, visual injury, 0 to 100 scale (0 no effect, 100 complete control)
[30] = 500 g ai/ha, visual rating 0-100, 0 no effect, 100 complete control
[31] = 125 g ai/ha, 0 to 100 scale, 0 is no effect, 100 is complete control

Question: With CCn1nc(C(C)(C)C)cc1C(=O)Nc1cc(C(=O)OC)cc(C)n1 [Compound 148] as the molecule, how does the “Barnyardgrass plant response rating” value [1, 25] read?
Answer: 20

Question: What about the “Plant response rating, Barnyardgrass” value [1, 26] of the same molecule?
Answer: 25

Question: What about the “Barnyardgrass plant response rating” value [1, 27] of the same molecule?
Answer: 0

Question: And the “Barnyardgrass plant response rating” value [1, 28]?
Answer: 20

Question: What about the “Crabgrass, Large plant response rating” value [2, 25] of the same molecule?
Answer: 5

Question: And the “Plant response rating, Crabgrass, Large” value [2, 26]?
Answer: 10

Question: And the “Crabgrass, Large plant response rating” value [2, 27]?
Answer: 0

Question: What about the “Crabgrass, Large plant response rating” value [2, 28] of the same molecule?
Answer: 15

Question: And the “Foxtail, Giant plant response rating” value [3, 25]?
Answer: 15

Question: What about the “Plant response rating, Foxtail, Giant” value [3, 26] of the same molecule?
Answer: 15

Question: What about the “Foxtail, Giant plant response rating” value [3, 27] of the same molecule?
Answer: 0

Question: What about the “Foxtail, Giant plant response rating” value [3, 28] of the same molecule?
Answer: 10

Question: And the “Morningglory plant response rating” value [4, 25]?
Answer: 15

Question: And the “Plant response rating, Morningglory” value [4, 26]?
Answer: 10

Question: And the “Morningglory plant response rating” value [4, 27]?
Answer: 0

Question: What about the “Morningglory plant response rating” value [4, 28] of the same molecule?
Answer: 5

Question: And the “Pigweed plant response rating” value [5, 25]?
Answer: 0

Question: And the “Plant response rating, Pigweed” value [5, 26]?
Answer: 15

Question: What about the “Pigweed plant response rating” value [5, 28] of the same molecule?
Answer: 25

Question: And the “Pigweed plant response rating” value [5, 29]?
Answer: 0

Question: What about the “Velvetleaf plant response rating” value [6, 25] of the same molecule?
Answer: 20

Question: What about the “Plant response rating, Velvetleaf” value [6, 26] of the same molecule?
Answer: 15

Question: What about the “Velvetleaf plant response rating” value [6, 28] of the same molecule?
Answer: 10

Question: What about the “Velvetleaf plant response rating” value [6, 29] of the same molecule?
Answer: 0

Question: And the “Plant response rating, Barnyardgrass” value [7, 30]?
Answer: 10

Question: And the “Barnyardgrass plant response rating” value ([7]; 125 g ai/ha)?
Answer: 0

Question: What about the “Barnyardgrass plant response rating” value ([7]; 500 g ai/ha) of the same molecule?
Answer: 20

Question: And the “Plant response rating, Barnyardgrass” value [7, 31]?
Answer: 0

Question: What about the “Plant response rating, Surinam Grass” value [8, 30] of the same molecule?
Answer: 0

Question: And the “Surinam Grass plant response rating” value ([8]; 125 g ai/ha)?
Answer: 10

Question: What about the “Surinam Grass plant response rating” value ([8]; 500 g ai/ha) of the same molecule?
Answer: 10

Question: And the “Plant response rating, Surinam Grass” value [8, 31]?
Answer: 0

Question: What about the “Plant response rating, Cocklebur” value [9, 30] of the same molecule?
Answer: 0

Question: And the “Cocklebur plant response rating” value ([9]; 125 g ai/ha)?
Answer: 20

Question: And the “Cocklebur plant response rating” value ([9]; 500 g ai/ha)?
Answer: 70

Question: And the “Plant response rating, Cocklebur” value [9, 31]?
Answer: 0

Question: What about the “Plant response rating, Corn” value [10, 30] of the same molecule?
Answer: 0

Question: And the “Corn plant response rating” value ([10]; 125 g ai/ha)?
Answer: 10

Question: And the “Corn plant response rating” value ([10]; 500 g ai/ha)?
Answer: 10

Question: And the “Plant response rating, Corn” value [10, 31]?
Answer: 0

Question: And the “Plant response rating, Crabgrass, Large” value [11, 30]?
Answer: 0

Question: And the “Crabgrass, Large plant response rating” value ([11]; 125 g ai/ha)?
Answer: 10

Question: And the “Crabgrass, Large plant response rating” value ([11]; 500 g ai/ha)?
Answer: 10

Question: And the “Plant response rating, Crabgrass, Large” value [11, 31]?
Answer: 0

Question: And the “Plant response rating, Foxtail, Giant” value [12, 30]?
Answer: 20

Question: And the “Foxtail, Giant plant response rating” value ([12]; 125 g ai/ha)?
Answer: 10

Question: What about the “Foxtail, Giant plant response rating” value ([12]; 500 g ai/ha) of the same molecule?
Answer: 10

Question: And the “Plant response rating, Foxtail, Giant” value [12, 31]?
Answer: 0

Question: And the “Lambsquarters plant response rating” value ([13]; 125 g ai/ha)?
Answer: 10

Question: And the “Lambsquarters plant response rating” value ([13]; 500 g ai/ha)?
Answer: 10

Question: And the “Plant response rating, Lambsquarters” value ([13]; preemergence, 125 g ai/ha, 0 to 100 scale, 0 is no effect, 100 is complete control)?
Answer: 0

Question: And the “Plant response rating, Morningglory” value [14, 30]?
Answer: 0

Question: And the “Morningglory plant response rating” value ([14]; 125 g ai/ha)?
Answer: 10

Question: And the “Morningglory plant response rating” value ([14]; 500 g ai/ha)?
Answer: 10

Question: What about the “Plant response rating, Morningglory” value [14, 31] of the same molecule?
Answer: 0

Question: What about the “Plant response rating, Pigweed” value [15, 30] of the same molecule?
Answer: 0

Question: And the “Pigweed plant response rating” value ([15]; 125 g ai/ha)?
Answer: 10

Question: And the “Pigweed plant response rating” value ([15]; 500 g ai/ha)?
Answer: 20

Question: And the “Plant response rating, Pigweed” value [15, 31]?
Answer: 0

Question: And the “Plant response rating, Rice” value [16, 30]?
Answer: 10

Question: And the “Plant response rating, Rice” value [16, 31]?
Answer: 0

Question: What about the “Plant response rating, Velvetleaf” value [17, 30] of the same molecule?
Answer: 0

Question: And the “Velvetleaf plant response rating” value ([17]; 125 g ai/ha)?
Answer: 10

Question: What about the “Velvetleaf plant response rating” value ([17]; 500 g ai/ha) of the same molecule?
Answer: 10

Question: What about the “Plant response rating, Velvetleaf” value [17, 31] of the same molecule?
Answer: 0

Question: And the “Blackgrass plant response rating” value ([18]; 125 g ai/ha)?
Answer: 0

Question: And the “Blackgrass plant response rating” value ([18]; 500 g ai/ha)?
Answer: 0

Question: And the “Wheat plant response rating” value [19]?
Answer: 30

Question: And the “Oat, Wild plant response rating” value ([20]; 125 g ai/ha)?
Answer: 10

Question: And the “Oat, Wild plant response rating” value ([20]; 500 g ai/ha)?
Answer: 10

Question: And the “Rice plant response rating” value [21]?
Answer: 0

Question: What about the “Sedge, Umbrella plant response rating” value [22] of the same molecule?
Answer: 70

Question: What about the “Ducksalad plant response rating” value [23] of the same molecule?
Answer: 0

Question: And the “Barnyardgrass plant response rating” value [24]?
Answer: 20
